Results: patent US6756504B2, “Sphingolipids” (Yissum Research Development Company of the Hebrew …, priority 2000, dated 2004)
pIC50: −log10 of the molar value.

Tests used:
HL60 cells = assay: HL60 total protein content (Bradford); type: cell-based, Human; conditions: HL60, two days
Experimental: HL60: Human leukemia cell line (ATCC CCL-240).
The effect of the AD-2646 compound on cell viability was further supported when the total protein content was quantified. HL60 cells were incubated as described above, with different concentrations of AD-2646. After 2 days the cells were collected, washed twice with saline, dispersed and following a short pulsing with a probe-sonicator their protein content was quantified by the Bradford procedure. Similarly to the viable cell counting results, the protein measurements indicated an IC50 value of 5 μM.
To analyze whether the AD-2646 compound may mediate its effect on cell viability and on total protein content, in cooperation with other compounds, the cooperative effect of this compound and Taxol was next evaluated. HL60 cells were incubated for two days with 4 μM AD2646 in the presence or absence of 2 ng Taxol.
The effect of different compounds of the invention on cell viability was next evaluated by measuring total cell protein quantity. Different cell lines were incubated for two days in the presence of increasing concentrations of the different compounds of the present invention.

[1] = literature (Wieder et al. 1998); cited from earlier work
[2] = tested on: Bod3-SPM (sphingomyelin) synthesis in HL60 cells; assay: Sphingolipid metabolism from Bodipy-C3-ceramide: Bod3-SPM in HL60; type: cell-based, Human; conditions: for pIC50: HL60, 3 hours, 2.5 μM Bodipy-C3-ceramide, read-out: od 3-SPM (IC50 for reduction of Bod3-SPM, cell+medium); for inhibition of Bod3-SPM (fluorescent image): HL60, 10 μM
Experimental: (§1) In order to examine the effect of the different compounds on sphingolipids metabolism, different cell lines were incubated with increasing concentrations of different compounds of the invention in the presence of 2.5 μM Bodipy-C3-ceramide that was added to the culture medium as a solution in dimethylsulfoxide (not exceeding 0.1% DMSO of the final volium). After 3 hours, cells and medium were collected and centrifuged. Cells were next extracted with chloroform-methanol containing 2% acetic acid 1:1 (by volume) and the medium was shaken with an equal volume of chloroform-methanol, 1:1 (by volume). The phases were separated by centrifugation and the lower chloroform phase was collected. The solvents were evaporated and applied to thin layer chromatography silica gel plates (Whatman 4865-821) with a concentrating zone.
(§2) Plates were developed as follows: For medium: in chloroform-methanol-H2O, 75:25:4 by volume. For cells: plates were first developed with chloroform-methanol, 9:1, then dried and re-run in chloroform-methanol: H2O, 65:35:4.
(§3) Standards of Bodipy-C3-ceramide: Bodipy-C3-glucosylceramide (Bod3-GC) and Bodipy C3 sphingomyelin (Bod3-SPM) were used as markers. The fluorescence of the respective Bod3-SPM and Bod3-GC spots was quantified using a Fuji FLA-2000 scanner.

[3] = tested on: Bod3-GC (glucosylceramide) synthesis in HL60 cells; assay: Sphingolipid metabolism from Bodipy-C3-ceramide: Bod3-GC in HL60; type: cell-based, Human; conditions: FIG. 6; for reduction of the level of Bod3-GC (fluorescent image): HL60, 10 μM
Experimental: as §1, §2, §3

Row | Structure (SMILES) | pIC50 [2] | inhibition of Bod3-SPM (fluorescent image) ([2]; FIG. 6) | reduction of the level of Bod3-GC (fluorescent image) [3] | further results
1 | CC(=O)O[C@H]1C(=O)[C@@]2(C)[C@H]([C@H](OC(=O)c3ccccc3)[C@]3(O)C[C@H](OC(=O)[C@H](O)[C@@H](NC(=O)c4ccccc4)c4ccccc4)C(C)=C1C3(C)C)[C@]1(OC(C)=O)CO[C@@H]1C[C@@H]2O [Taxol, reference compound] |  |  |  | Protein content (HL60 cells; 2 ng Taxol alone): 206 µg
2 | CC(C)(C)OC(=O)NCCCCCCCCCCCC(=O)Nc1ccc([C@H](O)[C@@H](CO)NC(=O)OC(C)(C)C)cc1 [AD-2620, (2R,3S)-2-BOC-amino-1-[4-N-(dodecanoyl-12-N-BOC amine)-phenyl)-1,3-propanediol] |  |  |  | pIC50 (HL60 cells; read-out: C50 (cell viability, total cell protein)): 5.52
3 | CCCCCCCCCCCCCCCCOP(=O)([O-])OCC[N+](C)(C)C [HePC, hexadecylphosphocholine] |  |  |  | concentration shown to induce apoptosis [1]: 25 µM
4 | CCCCCCCCCCCCCCN[C@H](CO)[C@H](O)c1ccc(N)cc1 [AD-2672, (2R,3R)-2-(N-tetradecylamine)-1-(4-aminophenyl)-1,3-propanediol] | 5.40 |  |  | effect on level of Bod3-SPM (fluorescent image) ([2]; HL60, 5 and 10 μM, FIG. 6): strongly reduces; effect on level of Bod3-GC (fluorescent image) ([3]; HL60, 5 and 10 μM): not
5 | CCCCCCCCCCCC(=O)Nc1ccc([C@@H](O)[C@H](N)CO)cc1 [AD-2673, (2R,3R)-2 amino-1-(N-dodecanoylaminophenyl)-1,3-propanediol] | 5.22 | low inhibition | much stronger reduction | 
6 | CCCCCCCCCCCC(=O)Nc1ccc([C@H](O)[C@@H](N)CO)cc1 [AD-2674] |  | low inhibition | much stronger reduction | 
